In US11730937B2, “Separable microneedle arrays for sustained release of drug” (Georgia Tech Research Corporation, priority 2017, dated 2023):

Assay: in vivo
Conditions: female, Sprague Dawley, rat, iv, 0.006 mg
Method: Specifically, LNG pharmacokinetics were evaluated in adult female Sprague Dawley rats (200±12 g) by applying a LNG-loaded microneedle patch to each rat while under isoflurane anesthesia. The rats' dorsal skin was shaved before application of microneedle patches, taking care not to damage skin during shaving.
Plasma was then separated by centrifuging blood samples at 2000 g for 15 minutes at 4° C., and underwent subsequent analysis by enzyme-linked immunosorbent assay (ELISA, Thermo Fisher Scientific) following the manufacturer's instruction to determine LNG concentration.
Pharmacokinetic parameters were calculated using non-compartmental pharmacokinetic analysis. […] Bioavailability of LNG delivered from microneedles was calculated from the ratio of dose-normalized AUC values after microneedle patch administration and intravenous LNG injection.

C#C[C@]1(O)CC[C@H]2[C@@H]3CCC4=CC(=O)CC[C@@H]4[C@H]3CC[C@@]21CC [LNG, levonorgestrel]
AUC(0-inf): 17.2 ± 0.3 ng·h/mL
AUC(0-t): 17.2 ± 0.3 ng·h/mL
half-life: 20.7 ± 0.6 h
